# Laboratory results taken from paper PMC9767416, “Discovery of small molecule mechanistic target of rapamycin inhibitors as anti-aging and anti-cancer therapeutics” (Frontiers in Aging Neuroscience, 2022).
# How the values were obtained:
# [1] = CNS MPO desirability score; details: from experimental and calculated data, method of Wager et al. (2016); scale 0-6
# Procedure: ACDLAbs PhysChem Suite 14.0 software (Advanced Chemistry Development, Inc., Toronto, ON, Canada) was used for the calculation of Mw, tPSA, and HBD values. The CNS MPO score calculation method was described by [Wager et al. (2016)].
# Central nervous system multiparameter optimization desirability score was calculated as described by [Wager et al. (2016)], utilizing all collected experimental and calculated data. This scoring tool was set on ranges of desirable property space and linear transformational functions with values between 0 and 1 (defined as T0 for each property). Rating each parameter equally, the collective score ranges from 0 to 6, while a score higher than 4 is desirable ([Rankovic, 2015]).
# U87 cells = assay: Time-lapse microscopy with annexin V staining of proliferating U87; assay type: cell-based, human
# Procedure: For auto-monitoring of cells, Incucyte SX1 Live-Cell Analysis System (Sartorius, Göttingen, Germany), located in an incubator maintained at 37°C under a 5% CO2 atmosphere and 95% humidity, was utilized. The images (1,408 × 1,040 pixels at 1.24 microns/pixel) were acquired using a 10× objective lens in phase contrast, red fluorescence (excitation: 585 ± 20 nm, emission: 635 [625, 705] nm, acquisition time: 100 ms) channels every 60 min during 72 h. The first image was acquired 30 min after adding compounds. The images were processed to measure cell confluence using Incucyte software (version 2022A). Annexin V – Dy647, Apronex (diluted 1:1,000) was used for apoptotic cell staining.
# [2] = system: mTORC2 substrate AKT (Ser473 phosphorylation); assay: Immunoblot of phospho-AKT (Ser473), mTORC2 activity in cells; assay type: cell-based, human; details: 100 μM; for AKT phosphorylation relative to control cells: after 5 h
# From the text: For immunoblotting, the following primary and secondary antibodies were used: rabbit polyclonal p70 S6 kinase (#9202), rabbit monoclonal phospho-p70 S6 kinase (Thr389) ([…]), rabbit monoclonal AKT kinase (#4691), rabbit monoclonal phospho-AKT kinase (Ser473) ([…]) obtained from Cell Signaling Technology, Inc., Danvers MA, USA; p21waf1 (sc-56335) obtained from Santa Cruz Biotechnology, Inc., Dallas, TX, USA and mouse monoclonal anti-GAPDH (GTX3066) purchased from GeneTex, Inc., Irvine, CA, USA; goat anti-mouse (170-6516) or anti-rabbit IgG (H + L)-HRP conjugate (170-6515) purchased from BioRad, Hercules, CA, USA.
# Cells were harvested 1 and 5 h after treatment. Cells were washed with PBS, harvested into SDS sample lysis buffer (SLB; 2% SDS, 63 mM Tris–HCl, pH 6.8, and 10% glycerol), sonicated, and centrifuged. Protein concentration was determined by BCA assay (Pierce Biotechnology, Rockford, IL, USA); samples were adjusted to equal protein amount (40 μg) with SLB containing dithiothreitol (1% final conc.) and bromophenol blue (0.02% final conc.), and separated by SDS–PAGE in Tris-glycine-SDS buffer (BioRad, 1610772). Proteins were electrotransferred onto a nitrocellulose membrane (0.45 μm NC, Amersham™, GE Healthcare Life Sciences) using wet transfer in Tris-glycine buffer (BioRad, 1810704) with 10% methanol (Sigma, 59304). After blocking with 5% non-fat milk in PBS/Tween-20, proteins were detected using specific antibodies and horseradish peroxidase (HRP)-conjugated secondary antibodies. Peroxidase activity was detected by ECL detection reagents (Thermo Fisher Scientific, Waltham, MA, USA).
# BJ, RPE-1, U87, U373, T98, A172, MDA-MB-231, H1299, and DU-145 cells were exposed to compound 3 (100 μM) for 1 and 5 h and the level of AKT serine 473 (Ser473) phosphorylation was assayed by immunoblotting. […] However, in several cell types (BJ, RPE-1, MDA-MB-231, H1299, and DU-145), the AKT phosphorylation was higher after 5 h of exposure than in control cells (Figure 11).
compound,measurement,setting,value
"Nc1ccc(C(=O)Nc2cccc(-c3c[nH]c4ncccc34)c2)cc1O [Compound 3, N-(3-(1H-pyrrolo[2,3-b]pyridin-3-yl)phenyl)-4-amino-3-hydroxybenzamide]",MPO (CNS MPO score),[1],4.5
same,cell phenotype in time-lapse microscopy,"U87 cells; proliferating U87, 100 μM, 72 h",rapid loss of cell spreading with a lack of mitotic activity and progressively occurring cell death
same,induction of apoptosis (annexin V staining),"U87 cells; time-lapse microscopy 72 h, 0–100 μM, Figure 5G",confirmed
same,effect on Ser473 AKT phosphorylation,"[2]; A172, after 1 h",Transient inhibition
same,effect on Ser473 AKT phosphorylation,"[2]; BJ, after 1 h",Transient inhibition
same,AKT phosphorylation relative to control cells,[2]; BJ,higher
same,effect on Ser473 AKT phosphorylation,"[2]; DU-145, after 1 h",Transient inhibition
same,AKT phosphorylation relative to control cells,[2]; DU-145,higher
same,effect on Ser473 AKT phosphorylation,"[2]; H1299, after 1 h",Transient inhibition
same,AKT phosphorylation relative to control cells,[2]; H1299,higher
same,effect on Ser473 AKT phosphorylation,"[2]; MDA-MB-231, after 1 h",Transient inhibition
same,AKT phosphorylation relative to control cells,[2]; MDA-MB-231,higher
same,effect on Ser473 AKT phosphorylation,"[2]; RPE-1, after 1 h",Transient inhibition
same,AKT phosphorylation relative to control cells,[2]; RPE-1,higher
same,effect on Ser473 AKT phosphorylation,"[2]; T98, after 1 h",Transient inhibition
same,rank of the inhibitory effect on Ser473 AKT phosphorylation among cell lines,"[2]; T98, after 1 h, inhibitory level kept after 5 h",most potent inhibitory effect
same,effect on Ser473 AKT phosphorylation,"[2]; U87, after 1 h",Transient inhibition
same,effect on Ser473 AKT phosphorylation,"[2]; U373, after 1 h",Transient inhibition
